Experiments:
[1] = molecular target: T1, recombinant human Dopamine Subtype D2s receptors (Homo sapiens, UniProt P14416); test: Dopamine D2 selectivity assay, [3H]-spiperone binding to membranes; conditions: read-out: D2 bind pIC50 (converted)
T1 construct: purchased Perkin Elmer
Description: Membranes containing recombinant human Dopamine Subtype D2s receptors were obtained from Perkin Elmer. These were diluted in Assay Buffer (50 mM HEPES, […], 120 mM NaCl, 0.1% gelatin, pH 7.4) to provide a final concentration of membranes that gave a clear window between maximum and minimum specific binding.
Assays were performed in U-bottomed 96-well polypropylene plates. 30 μL [^3H]-spiperone (0.16 nM final concentration) and 30 μL of test compound (10× final concentration) were added to each test well. For each assay plate 8 replicates were obtained for [^3H]-spiperone binding in the presence of 30 μL vehicle (10% (v/v) DMSO in Assay Buffer; defining maximum binding) or 30 μL Haloperidol (10 μM final concentration; defining non-specific binding (NSB)). Membranes were then added to achieve a final volume of 300 μL. The plates were incubated for 2 hours at room temperature and then filtered onto PEI coated GF/B filter plates, pre-soaked for 1 hour in Assay Buffer, using a 96-well plate Tomtec cell harvester. Five washes with 250 μL wash buffer (50 mM HEPES, 1 mM EDTA, 120 mM NaCl, pH 7.4) were performed at 4° C. to remove unbound radioactivity. The plates were dried then sealed from underneath using Packard plate sealers and MicroScint-O (50 μL) was added to each well. The plates were sealed (TopSeal A) and filter-bound radioactivity was measured with a scintillation counter (TopCount, Packard BioScience) using a 3-minute counting protocol.
Total specific binding (B0) was determined by subtracting the mean NSB from the mean maximum binding. NSB values were also subtracted from values from all other wells.

[2] = molecular target: T2, β2 receptor (Homo sapiens, UniProt P07550); test: β2 mediated cAMP production in H292 cells, AlphaScreen cAMP detection (10 minutes with test compound); format: cell-based
T2 construct: endogenous in cells; host or cells: H292 cells
Description: H292 cells were grown in RPMI (Roswell Park Memorial Institute) medium containing, 10% (v/v) FBS (foetal bovine serum) and 2 mM L-glutamine. Cells were grown in 225 cm2 flasks containing 25 mL media in a humidified incubator at 37° C., 5% CO2. Cells were harvested from the flask and passaged at a 1 in 10 dilution once per week.
The media from flasks containing H292 cells was removed, rinsed with 10 mL PBS (phosphate buffered saline) and replaced with 10 mL Accutase™ cell detachment solution. Flasks were incubated for 15 minutes in a humidified incubator at 37° C., 5% CO2. The cell suspension was counted and the cells re-suspended in RPMI media (containing 10% (v/v) FBS and 2 mM L-glutamine) at 0.05×10^6 cells per mL. 5000 cells in 100 μL were added to each well of a tissue-culture-treated 96-well plate and the cells incubated overnight in a humidified incubator at 37° C., 5% CO2. The culture media was removed, washed twice with 100 μL assay buffer and replaced with 50 μL assay buffer. Cells were rested at room temperature for 20 minutes after which time 25 μL of rolipram (1.2 mM made up in assay buffer containing 2.4% (v/v) dimethylsulphoxide) was added. Cells were incubated with rolipram for 10 minutes after which time test compounds (made up as ×4 concentrated stocks in assay buffer containing 4% (v/v) dimethylsulphoxide) were added and the cells were incubated for 10 minutes at room temperature. Final rolipram concentration in the assay was 300 μM and final vehicle concentration was 1.6% (v/v) dimethylsulphoxide. The reaction was stopped by removing supernatants, washing once with 100 μL assay buffer and replacing with 50 μL lysis buffer. The cell monolayer was frozen at −80° C. for 30 minutes (or overnight).
The concentration of cAMP (cyclic adenosine monophosphate) in the cell lysate was determined using the AlphaScreen™ methodology. The frozen cell plate was thawed for 20 minutes on a plate shaker then 10 μL of the cell lysate was transferred to a 96-well white plate. 40 μL of mixed AlphaScreen™ detection beads (containing equal volumes of donor beads (pre-incubated with biotinylated cAMP in the dark for 30 minutes) and acceptor beads), was added to each well and the plate incubated at room temperature for 10 hours in the dark. The AlphaScreen™ signal was measured using an EnVision spectrophotometer (Perkin-Elmer Inc.) with the recommended manufacturer's settings. cAMP concentrations were determined by reference to a calibration curve determined in the same experiment using standard cAMP concentrations (made up in lysis buffer in a 96-well tissue-culture-treated plate and frozen/thawed alongside the test samples) and detected using the same protocol. Concentration response curves for agonists were constructed to determine both the pEC50 and Intrinsic Activity.

T2 sequence (P07550 whole entry): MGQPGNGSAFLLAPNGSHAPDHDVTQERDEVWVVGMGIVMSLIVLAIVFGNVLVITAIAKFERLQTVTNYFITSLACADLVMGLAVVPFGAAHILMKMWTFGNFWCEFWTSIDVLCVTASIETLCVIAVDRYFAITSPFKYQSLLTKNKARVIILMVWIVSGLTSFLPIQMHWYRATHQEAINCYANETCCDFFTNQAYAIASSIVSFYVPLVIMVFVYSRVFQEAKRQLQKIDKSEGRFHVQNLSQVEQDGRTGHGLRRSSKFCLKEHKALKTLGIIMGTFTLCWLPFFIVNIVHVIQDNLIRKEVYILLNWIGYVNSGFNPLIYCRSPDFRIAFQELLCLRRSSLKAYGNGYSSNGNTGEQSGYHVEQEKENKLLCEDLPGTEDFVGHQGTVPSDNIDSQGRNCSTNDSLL
T1 sequence (P14416 1-414 isoform P14416-2): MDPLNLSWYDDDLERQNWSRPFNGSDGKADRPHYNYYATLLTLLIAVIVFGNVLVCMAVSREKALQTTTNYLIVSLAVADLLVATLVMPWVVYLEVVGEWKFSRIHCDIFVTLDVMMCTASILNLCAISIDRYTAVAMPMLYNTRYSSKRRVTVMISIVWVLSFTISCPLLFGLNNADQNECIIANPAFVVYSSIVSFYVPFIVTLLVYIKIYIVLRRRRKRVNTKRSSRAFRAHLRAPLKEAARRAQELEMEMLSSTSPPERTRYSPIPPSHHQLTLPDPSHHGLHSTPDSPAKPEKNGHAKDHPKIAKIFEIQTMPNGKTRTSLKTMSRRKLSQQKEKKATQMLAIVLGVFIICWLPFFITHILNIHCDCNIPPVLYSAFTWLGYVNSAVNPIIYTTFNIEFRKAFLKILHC

With `CCN(CC)CCN(CCNC[C@H](O)c1ccc(O)c2[nH]c(=O)sc12)C(=O)CCOCCc1ccccc1` [Example 7, N-[2-(Diethylamino)ethyl]-N-(2-{[(2R)-2-hydroxy-2-(4-hydroxy-2-oxo-2,3-dihydro-1,3-benzothiazol-7-yl)ethyl]amino}ethyl)-3-(2-phenylethoxy)propanamide] the IC50 [1] was 5010 nM, the EC50 ([2]; cAMP, 10 minutes incubation with compound, 300 μM rolipram) was 2.51 nM and the “Intrinsic Activity” value ([2]; fraction relative to the maximum activity determined for formoterol, 10 minutes incubation) was 1.1.

Reference: patent publication US20090203753A1, “7-(2-amino-1-hydroxy-ethyl)-4-hydroxybenzothiazol-2(3H)-one-derivatives as beta2 adrenoreceptor agonists” (AstraZeneca AB, priority 2005, published 2009)
